This is an account of results in ChEMBL document CHEMBL1134400, “Short peptides with induced beta-turn inhibit the interaction between HIV-1 gp120 and CD4” (J Med Chem, 2001).

Residues, ends and D or L forms follow the SMILES beside them.

In this assay the test system is Human immunodeficiency virus 1. Put plainly: Inhibitory activity against interaction between HIV-1 gp120 and CD4. Format: functional.

On to `CC(C)C[C@H](NC(=O)[C@H](CC(=O)O)NC(=O)[C@H](Cc1ccccc1)NC(=O)[C@H](CO)NC(=O)[C@@H]1CCCN1C(=O)[C@H](CCC(N)=O)NC(=O)[C@@H](N)CS)C(=O)N[C@@H](CCC(N)=O)C(=O)N[C@@H](CS)C(=O)O` (H-CQPSFDLQC-OH), for which the IC50 (as a rule, the concentration at which inhibition is half-maximal) turned out to be 1 µM.

With H-ARQPSFDLQCGF-OH, the midpoint of inhibition, the IC50, lay at 50 µM.

H-PSFDLQ-OH returned an IC50 of 6 µM.
